Laboratory results reported in patent US9889123B2, “Polymorphs of deuterated omega-diphenylurea or salts thereof” (Suzhou Zelgen Biopharmaceuticals Co., Ltd., priority 2012, dated 2018).

Columns and labels:
Format in all cases: physicochemical
[1] = Solubility in solvents (description of the compound)
Excerpt: The compound of formula I, with a molecular formula of C21H13D3ClF3N4O3 and a molecular weight of 467.84, is a white or off-white crystal powder, odorless and tasteless.

[2] = Accelerated stability test; conditions: 40° C., 75% RH, 1-6 months
[3] = Drug hygroscopicity test (Chinese Pharmacopoeia 2010 edition, Appendix XIX J); conditions: humidistatic dryer (saturated ammonium sulfate) at 25° C.±1° C. for 24 hours
Experimental: Take 4 dry glass weighing bottles with a top (The outer diameter was 60 mm and height was 30 mm). On the day before the test, the bottles was placed in a glass dryer (A saturated ammonium sulfate solution was placed in the lower part thereof) in a thermostatic and humidistatic chamber at 25° C.±1° C. (hereinafter, “a humidistatic dryer at 25° C.±1° C.”). The weighing bottle and its top were placed separately without the top on the bottle. Cover the glass dryer closely.
After each empty weighing bottle together with its top were placed in a humidistatic dryer at 25° C.±1° C. for 24 hours, weigh a set (the weighing bottle+its top) as a unit precisely respectively, recorded as m1. Take a sample appropriately, tile it in a glass weighing bottle weighed at a sample thickness of about 1 mm, and cover the bottle. Precisely weigh the weighing bottle with its top and the sample, recorded as m2. […] Then take off the top of the weighing bottles, and put the bottle and its top in the humidistatic dryer at 25° C.±1° C. for 24 hours.
After each sample were placed in a humidistatic dryer at 25° C.±1° C. for 24 hours, cover the weighing bottles with their tops respectively, and precisely weigh each weighing bottle with its top and the sample at this specific moment, recorded as m3. […]

[2H]C([2H])([2H])NC(=O)c1cc(Oc2ccc(NC(=O)Nc3ccc(Cl)c(C(F)(F)F)c3)cc2)ccn1 [compound of formula I, 4-(4-{3-[4-chloro-3-(trifluoromethyl)phenyl)-ureido]-phenoxy}-2-(N-1′,1′,1′-trideutero-methyl)picolinamide]
solubility in acetone ([1]; solvent acetone): slightly soluble
solubility in anhydrous ethanol ([1]; solvent anhydrous ethanol): slightly soluble
solubility in dimethyl formamide ([1]; solvent dimethyl formamide): very soluble
solubility in dimethyl sulfoxide ([1]; solvent dimethyl sulfoxide): very soluble
solubility in glacial acetic acid ([1]; solvent glacial acetic acid): slightly soluble
solubility in methanol ([1]; solvent methanol): sparingly soluble
solubility in water ([1]; solvent water): practically insoluble

Cc1ccc(S(=O)(=O)O)cc1.[2H]C([2H])([2H])NC(=O)c1cc(Oc2ccc(NC(=O)Nc3ccc(Cl)c(C(F)(F)F)c3)cc2)ccn1 [polymorph I, 1/1 p-toluenesulfonate of 4-(4-{3-[4-chloro-3-(trifluoromethyl)phenyl)-ureido]-phenoxy}-2-(N-1′,1′,1′-trideutero-methyl)picolinamide]
stability of crystal form [2]: very stable
purity after accelerated stability test ([2]; compared to freshly prepared (0 Months)): above 99%
hygroscopicity [3]: no hygroscopicity
weight increase (%) [3]: 0%

CNC(=O)c1cc(Oc2ccc(NC(=O)Nc3ccc(Cl)c(C(F)(F)F)c3)cc2)ccn1.Cc1ccc(S(=O)(=O)O)cc1 [polymorph II, methanol solvate of the 1/1 p-toluenesulfonate of 4-(4-{3-[4-chloro-3-(trifluoromethyl)phenyl)-ureido]-phenoxy}-2-(N-1′,1′,1′-trideutero-methyl)pico linamide]
stability of crystal form [2]: very stable

CCO.Cc1ccc(S(=O)(=O)O)cc1.[2H]C([2H])([2H])NC(=O)c1cc(Oc2ccc(NC(=O)Nc3ccc(Cl)c(C(F)(F)F)c3)cc2)ccn1 [polymorph IV, ethanol solvate of the 1/1 p-toluenesulfonate of 4-(4-{3-[4-chloro-3-(trifluoromethyl)phenyl)-ureido]-phenoxy}-2-(N-1′,1′,1′-trideutero-methyl)pico linamide]
stability of crystal form [2]: very stable

Cc1ccc(S(=O)(=O)O)cc1.[2H]C([2H])([2H])NC(=O)c1cc(Oc2ccc(NC(=O)Nc3ccc(Cl)c(C(F)(F)F)c3)cc2)ccn1.[2H]C([2H])([2H])NC(=O)c1cc(Oc2ccc(NC(=O)Nc3ccc(Cl)c(C(F)(F)F)c3)cc2)ccn1 [polymorph V, 1/2 p-toluenesulfonate of 4-(4-{3-[4-chloro-3-(trifluoromethyl)phenyl)-ureido]-phenoxy}-2-(N-1′,1′,1′-trideutero-methyl)pico linamide]
stability of crystal form [2]: very stable

[2H]C([2H])([2H])NC(=O)c1cc(Oc2ccc(NC(=O)Nc3ccc(Cl)c(C(F)(F)F)c3)cc2)ccn1 [polymorph VI, 4-(4-{3-[4-chloro-3-(trifluoromethyl)phenyl)-ureido]-phenoxy}-2-(N-1′,1′,1′-trideutero-methyl)picolinamide]
stability of crystal form [2]: very stable
